Results reported in ChEMBL document CHEMBL3286227, “Guanidinium-based derivatives: searching for new kinase inhibitors” (Eur J Med Chem, 2014).
The source made the active and inactive calls. The calls are words filed in the database; no cut-off is given here.

Columns and labels:
HL-60 [1] = test: Cytotoxicity against human HL60 cells after 72 hrs by Alamar Blue assay; assay type: functional, cell-based; settings: HL-60, 72 h
HL-60 [2] = test: Cell cycle arrest in human HL60 cells assessed as accumulation at Gn phase at 25 uM after 72 hrs by propidium iodide staining-based flow cytometry (reference value: 2.49 +/- 0.3%); assay type: functional
HL-60 [3] = test: Cell cycle arrest in human HL60 cells assessed as accumulation at G0/G1 phase at 10 uM after 72 hrs by propidium iodide staining-based flow cytometry (reference value: 65.7 +/- 0.1%); assay type: functional
HL-60 [4] = test: Cell cycle arrest in human HL60 cells assessed as accumulation at G0/G1 phase at 1 uM after 72 hrs by propidium iodide staining-based flow cytometry (reference value: 65.7 +/- 0.1%); assay type: functional
HL-60 [5] = test: Cell cycle arrest in human HL60 cells assessed as accumulation at G2/M phase at 25 uM after 72 hrs by propidium iodide staining-based flow cytometry (reference value: 14.8 +/- 0.7%); assay type: functional
HL-60 [6] = test: Cell cycle arrest in human HL60 cells assessed as accumulation at S phase at 1 uM after 72 hrs by propidium iodide staining-based flow cytometry (reference value: 16.4 +/- 0.8%); assay type: functional
HL-60 [7] = test: Cell cycle arrest in human HL60 cells assessed as accumulation at S phase at 25 uM after 48 hrs by propidium iodide staining-based flow cytometry (reference value: 21.5 +/- 1.0%); assay type: functional
HL-60 [8] = test: Induction of apoptosis in human HL60 cells assessed as cell shrinkage at 50 uM after 72 hrs by microscopy relative to vehicle-treated control; assay type: functional, cell-based
HL-60 [9] = test: Cell cycle arrest in human HL60 cells assessed as accumulation at G0/G1 phase at 50 uM after 48 hrs by propidium iodide staining-based flow cytometry (reference value: 57.0 +/- 1.0%); assay type: functional
HL-60 [10] = test: Cell cycle arrest in human HL60 cells assessed as accumulation at S phase at 50 uM after 48 hrs by propidium iodide staining-based flow cytometry (reference value: 21.5 +/- 1.0%); assay type: functional
HL-60 [11] = test: Cell cycle arrest in human HL60 cells assessed as accumulation at pre-G1 phase at 25 uM after 72 hrs by propidium iodide staining-based flow cytometry (reference value: 0.14%); assay type: functional
HL-60 [12] = test: Cell cycle arrest in human HL60 cells assessed as accumulation at S phase at 10 uM after 72 hrs by propidium iodide staining-based flow cytometry (reference value: 16.4 +/- 0.8%); assay type: functional
HL-60 [13] = test: Cell cycle arrest in human HL60 cells assessed as accumulation at G2/M phase at 50 uM after 48 hrs by propidium iodide staining-based flow cytometry (reference value: 18.4 +/- 1.3%); assay type: functional
HL-60 [14] = test: Cell cycle arrest in human HL60 cells assessed as accumulation at G2/M phase at 1 uM after 48 hrs by propidium iodide staining-based flow cytometry (reference value: 18.4 +/- 1.3%); assay type: functional
HL-60 [15] = test: Cell cycle arrest in human HL60 cells assessed as accumulation at S phase at 50 uM after 72 hrs by propidium iodide staining-based flow cytometry (reference value: 16.4 +/- 0.8%); assay type: functional
HL-60 [16] = test: Cell cycle arrest in human HL60 cells assessed as accumulation at pre-G1 phase at 50 uM after 72 hrs by propidium iodide staining-based flow cytometry (reference value: 0.14%); assay type: functional
HL-60 [17] = test: Cell cycle arrest in human HL60 cells assessed as accumulation at pre-G1 phase at 1 uM after 72 hrs by propidium iodide staining-based flow cytometry (reference value: 0.14%); assay type: functional
HL-60 [18] = test: Cell cycle arrest in human HL60 cells assessed as accumulation at pre-G1 phase at 10 uM after 72 hrs by propidium iodide staining-based flow cytometry (reference value: 0.14%); assay type: functional
HL-60 [19] = test: Cell cycle arrest in human HL60 cells assessed as accumulation at G2/M phase at 10 uM after 48 hrs by propidium iodide staining-based flow cytometry (reference value: 18.4 +/- 1.3%); assay type: functional
HL-60 [20] = test: Cell cycle arrest in human HL60 cells assessed as accumulation at G0/G1 phase at 50 uM after 72 hrs by propidium iodide staining-based flow cytometry (reference value: 65.7 +/- 0.1%); assay type: functional
HL-60 [21] = test: Cell cycle arrest in human HL60 cells assessed as accumulation at pre-G1 phase at 50 uM after 48 hrs by propidium iodide staining-based flow cytometry (reference value: 0.17%); assay type: functional
HL-60 [22] = test: Cell cycle arrest in human HL60 cells assessed as accumulation at S phase at 25 uM after 72 hrs by propidium iodide staining-based flow cytometry (reference value: 16.4 +/- 0.8%); assay type: functional
[23] = biological target: Glycogen synthase kinase-3 beta (Homo sapiens, UniProt P49841); test: Inhibition of human recombinant GSK-3 beta after 30 mins by luminescence assay
Sequence of Glycogen synthase kinase-3 beta (P49841 whole entry): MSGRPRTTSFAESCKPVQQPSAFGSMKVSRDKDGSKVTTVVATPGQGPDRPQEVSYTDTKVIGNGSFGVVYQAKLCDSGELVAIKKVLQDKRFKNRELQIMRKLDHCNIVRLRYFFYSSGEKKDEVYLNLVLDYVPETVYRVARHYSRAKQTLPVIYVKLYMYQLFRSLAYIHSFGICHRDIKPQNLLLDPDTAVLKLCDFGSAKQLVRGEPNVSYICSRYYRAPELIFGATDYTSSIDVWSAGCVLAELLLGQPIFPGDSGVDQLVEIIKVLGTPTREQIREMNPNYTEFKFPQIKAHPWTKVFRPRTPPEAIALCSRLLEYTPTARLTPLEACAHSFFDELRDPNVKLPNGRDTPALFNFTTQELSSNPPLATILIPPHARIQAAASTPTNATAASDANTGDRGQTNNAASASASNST

HL-60 [24] = test: Cell cycle arrest in human HL60 cells assessed as accumulation at G2/M phase at 10 uM after 72 hrs by propidium iodide staining-based flow cytometry (reference value: 14.8 +/- 0.7%); assay type: functional
HL-60 [25] = test: Cell cycle arrest in human HL60 cells assessed as accumulation at Gn phase at 50 uM after 72 hrs by propidium iodide staining-based flow cytometry (reference value: 2.49 +/- 0.3%); assay type: functional
HL-60 [26] = test: Cell cycle arrest in human HL60 cells assessed as accumulation at G0/G1 phase at 1 uM after 48 hrs by propidium iodide staining-based flow cytometry (reference value: 57.0 +/- 1.0%); assay type: functional
HL-60 [27] = test: Cell cycle arrest in human HL60 cells assessed as accumulation at G0/G1 phase at 25 uM after 72 hrs by propidium iodide staining-based flow cytometry (reference value: 65.7 +/- 0.1%); assay type: functional
HL-60 [28] = test: Cell cycle arrest in human HL60 cells assessed as accumulation at G2/M phase at 1 uM after 72 hrs by propidium iodide staining-based flow cytometry (reference value: 14.8 +/- 0.7%); assay type: functional
[29] = biological target: Casein kinase I isoform delta (Homo sapiens, UniProt P48730); test: Inhibition of human recombinant casein kinase-1 delta using casein as substrate after 60 mins by kinase-glo luminescence assay
Sequence of Casein kinase I isoform delta (P48730 whole entry, canonical isoform): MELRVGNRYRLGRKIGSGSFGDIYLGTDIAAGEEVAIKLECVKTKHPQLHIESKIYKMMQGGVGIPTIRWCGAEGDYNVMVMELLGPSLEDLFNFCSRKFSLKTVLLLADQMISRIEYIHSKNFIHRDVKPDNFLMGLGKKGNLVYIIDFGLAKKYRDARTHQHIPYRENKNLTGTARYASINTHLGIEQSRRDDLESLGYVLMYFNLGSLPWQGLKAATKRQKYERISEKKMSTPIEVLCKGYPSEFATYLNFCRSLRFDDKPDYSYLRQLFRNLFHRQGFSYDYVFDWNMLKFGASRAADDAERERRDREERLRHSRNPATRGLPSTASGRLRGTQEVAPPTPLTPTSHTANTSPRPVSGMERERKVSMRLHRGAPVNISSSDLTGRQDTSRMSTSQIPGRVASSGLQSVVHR

HL-60 [30] = test: Cell cycle arrest in human HL60 cells assessed as accumulation at G2/M phase at 50 uM after 72 hrs by propidium iodide staining-based flow cytometry (reference value: 14.8 +/- 0.7%); assay type: functional
HL-60 [31] = test: Cell cycle arrest in human HL60 cells assessed as accumulation at G0/G1 phase at 10 uM after 48 hrs by propidium iodide staining-based flow cytometry (reference value: 57.0 +/- 1.0%); assay type: functional
HL-60 [32] = test: Cell cycle arrest in human HL60 cells assessed as accumulation at S phase at 10 uM after 48 hrs by propidium iodide staining-based flow cytometry (reference value: 21.5 +/- 1.0%); assay type: functional
HL-60 [33] = test: Cell cycle arrest in human HL60 cells assessed as accumulation at Gn phase at 25 uM after 48 hrs by propidium iodide staining-based flow cytometry (reference value: 2.49 +/- 0.4%); assay type: functional
HL-60 [34] = test: Cell cycle arrest in human HL60 cells assessed as accumulation at Gn phase at 10 uM after 72 hrs by propidium iodide staining-based flow cytometry (reference value: 2.49 +/- 0.3%); assay type: functional
HL-60 [35] = test: Cell cycle arrest in human HL60 cells assessed as accumulation at S phase at 1 uM after 48 hrs by propidium iodide staining-based flow cytometry (reference value: 21.5 +/- 1.0%); assay type: functional

`Cl.N=C(N)Nc1ccc(Oc2cccc(NC(=N)Nc3ccc(Cl)c(C(F)(F)F)c3)c2)cc1` was tested. Which IC50 (HL-60 [1]) did it give?
The IC50 was 9.72 µM.

What about the Activity (HL-60 [2]) of the same compound?
The Activity was 2.56%.

What about the Activity (HL-60 [3]) of the same compound?
Its Activity is 61.3%.

What about the Activity (HL-60 [4]) of the same compound?
Its Activity is 61.7%.

What about the Activity (HL-60 [5]) of the same compound?
The Activity was 12.9%.

And the Activity (HL-60 [6])?
Its Activity is 17.1%.

And the Activity (HL-60 [7])?
Its Activity is 7.15%.

And the Activity (HL-60 [8])?
Its Activity is “Active”.

What about the Activity (HL-60 [9]) of the same compound?
The Activity was 44.6%.

And the Activity (HL-60 [10])?
Its Activity is 15.7%.

What about the Activity (HL-60 [11]) of the same compound?
The Activity was 2.22%.

And the Activity (HL-60 [12])?
The Activity was 14.1%.

What about the Activity (HL-60 [13]) of the same compound?
The Activity was 18.6%.

What about the Activity (HL-60 [14]) of the same compound?
The Activity was 20.4%.

What about the Activity (HL-60 [15]) of the same compound?
The Activity was 14.4%.

And the Activity (HL-60 [16])?
Its Activity is 25.1%.

And the Activity (HL-60 [17])?
The Activity was 0.13%.

And the Activity (HL-60 [18])?
Its Activity is 0.23%.

And the Activity (HL-60 [19])?
Its Activity is 14.6%.

What about the Activity (HL-60 [20]) of the same compound?
The Activity was 43.7%.

And the Activity (HL-60 [21])?
Its Activity is 12.5%.

And the Activity (HL-60 [22])?
Its Activity is 4.19%.

What about the IC50 [23] of the same compound?
The IC50 was greater than 100 µM.

What about the Activity (HL-60 [24]) of the same compound?
Its Activity is 18.9%.

And the Activity (HL-60 [25])?
Its Activity is 1.75%.

And the Activity (HL-60 [26])?
Its Activity is 56.6%.

And the Activity (HL-60 [27])?
Its Activity is 73.4%.

And the Activity (HL-60 [28])?
Its Activity is 16.7%.

What about the IC50 [29] of the same compound?
Its IC50 is greater than 100 µM.

And the Activity (HL-60 [30])?
The Activity was 13.6%.

What about the Activity (HL-60 [31]) of the same compound?
Its Activity is 68.9%.

What about the Activity (HL-60 [32]) of the same compound?
The Activity was 14.7%.

What about the Activity (HL-60 [33]) of the same compound?
The Activity was 2.17%.

And the Activity (HL-60 [34])?
The Activity was 3.36%.

And the Activity (HL-60 [35])?
Its Activity is 20.6%.
